Source: US5482971A, “Beta3 -adrenergic agents and their use in pharmaceutical compositions” (American Cyanamid Company, priority 1993, dated 1996)

How the values were obtained:
[1] = molecular target: T1, beta2 -adrenergic receptor (Rattus norvegicus, UniProt P10608); test: Lung binding: β2-effect, membranes from rat lung, [125I]iodocyanopindolol; conditions: incubation 1 hour
T1 construct: membranes from rat lung; from tissue; host or cells: rat lung membranes
Protocol: (§1) Selectivity of a compound is determined using the following procedures.
(§2) Binding assays for β1 -effect are carried out by the use of membranes from rat heart, and β2 -effect by the use of membranes from rat lung by the method described in Neve, et at., J. Pharmacol. Exp. Ther., 1985, 235, 657-664 with the following exceptions:
(§3) 1. the incubation volume is 0.5 ml,
(§4) 2. the incubation time is 1 hour,
(§5) 3. the radioligand is [^125 I]iodocyanopindolol,
(§6) 4. (-)-isoproterenol (50 μM) is used to define specific binding, and
(§7) 5. the filters are washed at 4° C.

[2] = molecular target: T2, beta3 -adrenergic receptor (Rattus norvegicus, UniProt P26255); test: β3-effect: stimulation of adipocyte lipolysis (rat epididymal fat pad cells, glycerol release); type: cell-based; conditions: rat epididymal adipocytes, 37° C., 30 minutes; concentration giving 50% of the maximum rate of lipolysis of that compound
T2 construct: Rat epididymal fat pads are excised and placed in 0.9% saline; from tissue; host or cells: collagenase-isolated adipocytes from rat epididymal fat pads
T2 sequence (P26255 whole entry): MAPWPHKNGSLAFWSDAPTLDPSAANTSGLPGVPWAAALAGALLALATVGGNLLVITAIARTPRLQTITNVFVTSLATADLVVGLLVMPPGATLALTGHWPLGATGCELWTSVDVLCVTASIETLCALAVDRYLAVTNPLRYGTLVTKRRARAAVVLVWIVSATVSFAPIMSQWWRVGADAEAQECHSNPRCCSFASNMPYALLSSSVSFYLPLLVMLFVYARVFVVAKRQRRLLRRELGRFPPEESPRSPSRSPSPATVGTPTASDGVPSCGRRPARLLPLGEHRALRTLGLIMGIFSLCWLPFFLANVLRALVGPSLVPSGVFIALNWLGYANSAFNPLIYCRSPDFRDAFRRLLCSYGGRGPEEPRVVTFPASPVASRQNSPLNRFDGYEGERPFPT
Protocol: as §1
The β3 -effect of the compounds is determined by their ability to stimulate adipocyte lipolysis. Rat epididymal fat pads are excised and placed in 0.9% saline. Four grams of tissue is transferred to a flask with 20 ml of aerated Krebs-Henseleit bicarbonate (KHB) buffer containing 3% fatty acid-free bovine serum albumin to which 75 mg of crude bacterial collagenase (Worthington) has been added. The tissue is incubated for about 45 minutes at 37° C. with gentle shaking. The cells are then washed three times with two volumes of KHB buffer, filtered through two layers of gauze, and brought to a final volume of 80 ml with KHB buffer. One ml aliquots of the cell suspension is added to plastic test tubes containing the appropriate additions of vehicle or compound. The cells are gassed for 1 minute with 95%O2 -5%CO2, capped, and incubated at 37° C. with continuous shaking for a total of 30 minutes. The reaction is stopped by adding 0.1 ml of 30% perchloric acid and 0.1 ml of chloroform. […] The amount of glycerol generated from the hydrolysis of endogenous triglycerides is determined in a coupled-enzyme spectrophotometric assay. […] The amount of NADH generated, which is proportional to the amount of glycerol, is determined by the increase in absorbance at 340 nm. […]

[3] = molecular target: T3, beta1 -adrenergic receptor (Rattus norvegicus, UniProt P18090); test: Heart binding: β1-effect, membranes from rat heart, [125I]iodocyanopindolol; conditions: incubation 1 hour
T3 construct: membranes from rat heart; from tissue; host or cells: rat heart membranes
T3 sequence (P18090 whole entry): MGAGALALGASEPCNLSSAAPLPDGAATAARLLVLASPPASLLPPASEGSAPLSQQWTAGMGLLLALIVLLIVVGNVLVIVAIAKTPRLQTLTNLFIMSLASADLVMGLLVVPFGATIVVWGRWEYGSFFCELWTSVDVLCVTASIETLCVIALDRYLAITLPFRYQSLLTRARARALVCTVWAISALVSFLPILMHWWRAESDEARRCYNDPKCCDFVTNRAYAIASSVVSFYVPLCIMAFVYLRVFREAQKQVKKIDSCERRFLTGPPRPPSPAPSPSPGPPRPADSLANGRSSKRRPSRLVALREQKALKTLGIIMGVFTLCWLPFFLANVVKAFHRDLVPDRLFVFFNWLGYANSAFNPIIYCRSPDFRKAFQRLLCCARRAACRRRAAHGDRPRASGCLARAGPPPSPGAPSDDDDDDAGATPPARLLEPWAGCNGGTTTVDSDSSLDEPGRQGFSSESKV
Protocol: as §1, §2, §3, §4, §5, §6, §7

T1 sequence (P10608 whole entry): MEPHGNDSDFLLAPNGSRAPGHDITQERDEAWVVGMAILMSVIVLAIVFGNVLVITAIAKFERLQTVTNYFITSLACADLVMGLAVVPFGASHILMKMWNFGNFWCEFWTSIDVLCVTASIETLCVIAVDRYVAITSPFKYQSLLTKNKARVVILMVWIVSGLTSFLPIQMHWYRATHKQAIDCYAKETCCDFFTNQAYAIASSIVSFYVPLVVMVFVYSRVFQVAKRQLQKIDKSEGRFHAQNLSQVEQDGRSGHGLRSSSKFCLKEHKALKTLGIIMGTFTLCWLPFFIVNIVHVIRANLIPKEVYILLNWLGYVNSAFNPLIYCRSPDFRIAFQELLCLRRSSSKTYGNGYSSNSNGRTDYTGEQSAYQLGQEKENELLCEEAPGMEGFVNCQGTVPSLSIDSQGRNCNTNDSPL

Work on `C[C@H](CCc1ccc2c(c1)OC(C(=O)O)(C(=O)O)O2)NC[C@H](O)c1cccc(Cl)c1` [Example 3, Disodium (R,R)-5-((3-(2-(3-chlorophenyl)-2-hydroxyethyl)amino)butyl)-1,3-benzodioxole-2,2-dicarboxylate] yielded an IC50 [1] of 20000 nM, an EC50 [2] of 17 nM and an IC50 [3] of 19000 nM.
